Results as given in ChEMBL document CHEMBL4308853, “Design, Synthesis, and Pharmacological Evaluation of Novel β2/3 Subunit-Selective γ-Aminobutyric Acid Type A (GABAA) Receptor Modulators” (J Med Chem, 2018).

What was measured:
[1] = biological target: T1, GABA-A receptor; alpha-1/beta-3/gamma-2 (Homo sapiens, UniProt P14867+P18507+P28472); assay: Positive allosteric modulation of GABA-A alpha1beta3gamma2S receptor (unknown origin) expressed in Xenopus laevis oocytes assessed as increase in GABA-induced chloride current after 15 mins at -70 mV holding potential by two-microelectrode voltage clamp method; format: cell-based
T1 sequence (P14867 whole entry): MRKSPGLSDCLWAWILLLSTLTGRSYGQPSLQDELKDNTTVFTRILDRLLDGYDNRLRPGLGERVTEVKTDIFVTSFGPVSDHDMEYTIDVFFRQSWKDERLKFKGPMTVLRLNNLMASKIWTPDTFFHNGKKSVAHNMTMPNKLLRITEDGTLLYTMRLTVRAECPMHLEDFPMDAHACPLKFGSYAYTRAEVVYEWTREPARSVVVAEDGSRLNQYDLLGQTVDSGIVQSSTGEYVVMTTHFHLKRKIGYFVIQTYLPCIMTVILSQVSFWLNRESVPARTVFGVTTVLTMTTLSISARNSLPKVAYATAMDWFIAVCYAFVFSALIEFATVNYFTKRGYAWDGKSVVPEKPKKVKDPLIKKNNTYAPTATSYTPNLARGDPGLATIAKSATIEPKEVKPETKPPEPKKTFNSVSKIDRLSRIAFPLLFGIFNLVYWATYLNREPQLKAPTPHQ
T1 sequence (P18507 whole entry): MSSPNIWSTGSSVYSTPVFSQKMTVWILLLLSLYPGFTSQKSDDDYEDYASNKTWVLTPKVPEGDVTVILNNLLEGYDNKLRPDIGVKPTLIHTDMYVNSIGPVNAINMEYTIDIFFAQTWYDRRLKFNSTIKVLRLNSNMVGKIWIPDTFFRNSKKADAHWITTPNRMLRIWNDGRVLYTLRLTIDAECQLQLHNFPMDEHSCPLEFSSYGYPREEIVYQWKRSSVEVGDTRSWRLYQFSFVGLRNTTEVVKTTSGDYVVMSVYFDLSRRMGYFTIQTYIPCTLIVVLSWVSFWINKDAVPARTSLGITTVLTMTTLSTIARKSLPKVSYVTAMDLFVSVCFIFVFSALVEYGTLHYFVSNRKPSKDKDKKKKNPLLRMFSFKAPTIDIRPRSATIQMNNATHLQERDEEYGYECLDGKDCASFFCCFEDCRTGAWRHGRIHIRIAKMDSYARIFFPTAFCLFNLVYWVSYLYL
T1 sequence (P28472 whole entry): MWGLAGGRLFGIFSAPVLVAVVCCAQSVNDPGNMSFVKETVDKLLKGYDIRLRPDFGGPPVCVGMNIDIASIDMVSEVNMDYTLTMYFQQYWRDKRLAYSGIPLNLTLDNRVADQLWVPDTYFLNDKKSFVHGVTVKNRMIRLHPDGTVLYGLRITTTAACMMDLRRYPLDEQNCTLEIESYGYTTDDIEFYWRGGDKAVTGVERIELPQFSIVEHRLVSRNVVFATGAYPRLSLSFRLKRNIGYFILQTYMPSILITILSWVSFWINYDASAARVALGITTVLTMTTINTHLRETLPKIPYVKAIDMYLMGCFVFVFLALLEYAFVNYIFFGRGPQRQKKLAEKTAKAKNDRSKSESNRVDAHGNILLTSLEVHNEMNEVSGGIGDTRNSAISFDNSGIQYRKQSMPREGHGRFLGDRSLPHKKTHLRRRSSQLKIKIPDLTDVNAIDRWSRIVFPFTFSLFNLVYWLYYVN

[2] = biological target: T2, GABA-A receptor; alpha-1/beta-2/gamma-2 (Homo sapiens, UniProt P14867+P18507+P47870); assay: Positive allosteric modulation of GABA-A alpha1beta2gamma2S receptor (unknown origin) expressed in Xenopus laevis oocytes assessed as increase in GABA-induced chloride current after 15 mins at -70 mV holding potential by two-microelectrode voltage clamp method; format: cell-based
T2 sequence (P14867 whole entry): T1 sequence (P14867 whole entry)
T2 sequence (P47870 whole entry): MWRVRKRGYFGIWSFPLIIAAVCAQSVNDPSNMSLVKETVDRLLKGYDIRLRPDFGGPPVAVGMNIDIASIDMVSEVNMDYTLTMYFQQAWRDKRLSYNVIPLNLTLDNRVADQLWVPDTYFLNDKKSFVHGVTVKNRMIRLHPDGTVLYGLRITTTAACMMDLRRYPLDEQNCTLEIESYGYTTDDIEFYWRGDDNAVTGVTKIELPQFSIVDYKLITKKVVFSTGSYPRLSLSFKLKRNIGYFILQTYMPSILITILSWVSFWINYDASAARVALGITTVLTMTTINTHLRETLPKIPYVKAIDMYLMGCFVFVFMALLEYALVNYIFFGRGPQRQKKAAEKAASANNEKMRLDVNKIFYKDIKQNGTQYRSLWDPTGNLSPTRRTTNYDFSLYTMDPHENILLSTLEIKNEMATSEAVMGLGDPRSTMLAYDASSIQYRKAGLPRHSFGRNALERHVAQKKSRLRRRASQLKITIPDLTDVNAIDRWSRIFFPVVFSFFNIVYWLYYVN
T2 sequence (P18507 whole entry): T1 sequence (P18507 whole entry)

SMILES	EC50 [1]	EC50 [2]
C/C(C#N)=C\c1ccc(C)cc1Cl	44 µM	
C/C(=C(/C#N)C(N)=O)c1ccc(Cl)cc1Cl	55 µM	64 µM
CC(=C(C#N)C(N)=O)c1ccc(Cl)cc1Cl (mixture of isomers)	67 µM	
CC(CC#N)c1ccc(Cl)cc1Cl (racemic)	120 µM	
Cl/C(=C\n1cncn1)c1ccc(Cl)cc1Cl [LORECLEZOLE]	11 µM	
C/C(=C\C#N)c1ccc(Cl)cc1Cl	100 µM	
